Source: patent US10597388B2, “Pyridazinone herbicides” (FMC CORPORATION, priority 2014, dated 2020)

How the values were obtained:
Assay in all cases: Test D controlled growth environment herbicide test, pre- and postemergence
Type in all cases: in vivo
[1] = test system: oilseed rape (Brassica napus)
Excerpt: (§1) Seeds of plant species selected from bluegrass (annual bluegrass, Poa annua), blackgrass (Alopecurus myosuroides), Canada thistle (Cirsium arvense), canarygrass (Phalaris minor), chickweed (common chickweed, Stellaria media), geranium, cutleaf (cutleaf geranium, Geranium dissectum), galium (catchweed bedstraw, Galium aparine), bromegrass, downy (downy bromegrass, Bromus tectorum), field poppy (Papaver rhoeas), field violet (Viola arvensis), foxtail, green (green foxtail, Setaria viridis), deadnettle (henbit deadnettle, Lamium amplexicaule), ryegrass, Italian (Italian ryegrass, Lolium multiflorum), kochia (Kochia scoparia), lambsquarters (Chenopodium album), oilseed rape (Brassica napus), pigweed (Amaranthus retroflexus), chamomile (scentless chamomile, Matricaria inodora), Russian thistle (Salsola kali), speedwell (bird's-eye speedwell, Veronica persica), barley, spring (spring barley, Hordeum vulgare), wheat, spring (spring wheat, Triticum aestivum), buckwheat, wild (wild buckwheat, Polygonum convolvulus), mustard, wild (wild mustard, Sinapis arvensis), oat, wild (wild oat, Avena fatua), radish, wild (wild radish, Raphanus raphanistrum), windgrass (Apera spica-venti), barley, winter (winter barley, Hordeum vulgare), and wheat, winter (winter wheat, Triticum aestivum) were planted into a silt loam soil and treated preemergence with test chemicals formulated in a non-phytotoxic solvent mixture which included a surfactant.
(§2) At the same time, these species were planted in pots containing Redi-Earth® planting medium (Scotts Company, 14111 Scottslawn Road, Marysville, Ohio 43041) comprising spaghnum peat moss, vermiculite, wetting agent and starter nutrients and treated with postemergence applications of the test chemicals formulated in the same manner. Plants ranged in height from 2 to 18 cm (1- to 4-leaf stage). Treated plants and controls were maintained in a controlled growth environment for 14 to 21 d after which time all species were compared to controls and visually evaluated. Plant response ratings, summarized in Table D, are based on a scale of 0 to 100 where 0 is no effect and 100 is complete control. A dash (-) response means no test result.

[2] = test system: mustard, wild (wild mustard, Sinapis arvensis)
Excerpt: as §1, §2

[3] = test system: bromegrass, downy (downy bromegrass, Bromus tectorum)
Excerpt: as §1, §2

[4] = test system: blackgrass (Alopecurus myosuroides)
Excerpt: as §1, §2

[5] = test system: ryegrass, Italian (Italian ryegrass, Lolium multiflorum)
Excerpt: as §1, §2

[6] = test system: windgrass (Apera spica-venti)
Excerpt: as §1, §2

[7] = test system: chamomile (scentless chamomile, Matricaria inodora)
Excerpt: as §1, §2

[8] = test system: kochia (Kochia scoparia)
Excerpt: as §1, §2

[9] = test system: speedwell (bird's-eye speedwell, Veronica persica)
Excerpt: as §1, §2

[10] = test system: buckwheat, wild (wild buckwheat, Polygonum convolvulus)
Excerpt: as §1, §2

[11] = test system: galium (catchweed bedstraw, Galium aparine)
Excerpt: as §1, §2

[12] = test system: deadnettle (henbit deadnettle, Lamium amplexicaule)
Excerpt: as §1, §2

[13] = test system: pigweed (Amaranthus retroflexus)
Excerpt: as §1, §2

[14] = test system: foxtail, green (green foxtail, Setaria viridis)
Excerpt: as §1, §2

[15] = Postemergence, 31 g ai/ha, scale 0 to 100 (0 no effect, 100 complete control)
[16] = Postemergence, 125 g ai/ha, visual rating on scale 0 (no effect) to 100 (complete control), 14 to 21 d
[17] = Postemergence, 250 g ai/ha, scale 0 to 100 (0 no effect, 100 complete control)
[18] = Preemergence, 62 g ai/ha, scale 0 to 100 (0 no effect, 100 complete control)
[19] = Preemergence, 125 g ai/ha, scale 0 to 100 (0 no effect, 100 complete control)
[20] = Preemergence, 250 g ai/ha, scale 0 to 100, 0 no effect, 100 complete control
[21] = postemergence, 62 g ai/ha, scale 0 to 100, 0 no effect, 100 complete control

Cc1nn(C)c(=O)c(-c2ccc(F)c3ccccc23)c1O [Compound 41]
Oilseed Rape plant response rating [1, 15]: 0 | Plant response rating, Oilseed Rape [1, 16]: 25 | Plant response rating, Oilseed Rape [1, 17]: 55 | Plant response rating (scale of 0 to 100), Oilseed Rape ([1]; Preemergence, 31 g ai/ha): 0 | Plant response rating, Oilseed Rape [1, 18]: 5 | Plant response rating, Oilseed Rape [1, 19]: 25 | Plant response rating, Oilseed Rape [1, 20]: 15 | Plant response rating, Oilseed Rape [1, 21]: 5 | Mustard, Wild plant response rating [2, 15]: 90 | Plant response rating, Mustard, Wild [2, 16]: 100 | Plant response rating, Mustard, Wild [2, 17]: 100 | Plant response rating (scale of 0 to 100), Mustard, Wild ([2]; Preemergence, 31 g ai/ha): 70 | Plant response rating, Mustard, Wild [2, 18]: 90 | Plant response rating, Mustard, Wild [2, 19]: 95 | Plant response rating, Mustard, Wild [2, 20]: 95 | Plant response rating, Mustard, Wild [2, 21]: 100 | Bromegrass, Downy plant response rating [3, 15]: 10 | Plant response rating, Bromegrass, Downy [3, 16]: 35 | Plant response rating, Bromegrass, Downy [3, 17]: 45 | Plant response rating (scale of 0 to 100), Bromegrass, Downy ([3]; Preemergence, 31 g ai/ha): 50 | Plant response rating, Bromegrass, Downy [3, 18]: 55 | Plant response rating, Bromegrass, Downy [3, 19]: 70 | Plant response rating, Bromegrass, Downy [3, 20]: 80 | Plant response rating, Bromegrass, Downy [3, 21]: 20 | Blackgrass plant response rating [4, 15]: 55 | Plant response rating, Blackgrass [4, 16]: 70 | Plant response rating, Blackgrass [4, 17]: 75 | Plant response rating (scale of 0 to 100), Blackgrass ([4]; Preemergence, 31 g ai/ha): 70 | Plant response rating, Blackgrass [4, 18]: 75 | Plant response rating, Blackgrass [4, 19]: 80 | Blackgrass plant response rating [4, 20]: 80 | Plant response rating, Blackgrass [4, 21]: 65 | Ryegrass, Italian plant response rating [5, 15]: 80 | Plant response rating, Ryegrass, Italian [5, 16]: 85 | Plant response rating, Ryegrass, Italian [5, 17]: 90 | Plant response rating (scale of 0 to 100), Ryegrass, Italian ([5]; Preemergence, 31 g ai/ha): 95 | Plant response rating, Ryegrass, Italian [5, 18]: 100 | Plant response rating, Ryegrass, Italian [5, 19]: 100 | Plant response rating, Ryegrass, Italian [5, 20]: 100 | Plant response rating, Ryegrass, Italian [5, 21]: 85 | Windgrass plant response rating [6, 15]: 40 | Plant response rating, Windgrass [6, 16]: 60 | Plant response rating, Windgrass [6, 17]: 75 | Plant response rating (scale of 0 to 100), Windgrass ([6]; Preemergence, 31 g ai/ha): 70 | Plant response rating, Windgrass [6, 18]: 75 | Plant response rating, Windgrass [6, 19]: 80 | Plant response rating, Windgrass [6, 20]: 95 | Plant response rating, Windgrass [6, 21]: 55 | Chamomile plant response rating [7, 15]: 75 | Plant response rating, Chamomile [7, 16]: 80 | Plant response rating, Chamomile [7, 17]: 100 | Plant response rating, Chamomile [7, 21]: 75 | Kochia plant response rating [8, 15]: 85 | Plant response rating, Kochia [8, 16]: 85 | Plant response rating, Kochia [8, 17]: 100 | Plant response rating (scale of 0 to 100), Kochia ([8]; Preemergence, 31 g ai/ha): 80 | Plant response rating, Kochia [8, 18]: 75 | Plant response rating, Kochia [8, 19]: 80 | Plant response rating, Kochia [8, 20]: 100 | Plant response rating, Kochia [8, 21]: 95 | Speedwell plant response rating [9, 15]: 100 | Plant response rating, Speedwell [9, 16]: 100 | Plant response rating, Speedwell [9, 17]: 100 | Plant response rating (scale of 0 to 100), Speedwell ([9]; Preemergence, 31 g ai/ha): 100 | Plant response rating, Speedwell [9, 18]: 95 | Plant response rating, Speedwell [9, 19]: 100 | Plant response rating, Speedwell [9, 20]: 100 | Plant response rating, Speedwell [9, 21]: 100 | Buckwheat, Wild plant response rating [10, 15]: 80 | Plant response rating, Buckwheat, Wild [10, 16]: 95 | Plant response rating, Buckwheat, Wild [10, 17]: 100 | Plant response rating (scale of 0 to 100), Buckwheat, Wild ([10]; Preemergence, 31 g ai/ha): 35 | Plant response rating, Buckwheat, Wild [10, 18]: 55 | Plant response rating, Buckwheat, Wild [10, 19]: 65 | Plant response rating, Buckwheat, Wild [10, 20]: 75 | Plant response rating, Buckwheat, Wild [10, 21]: 90 | Galium plant response rating [11, 15]: 100 | Plant response rating, Galium [11, 16]: 100 | Plant response rating, Galium [11, 17]: 100 | Plant response rating (scale of 0 to 100), Galium ([11]; Preemergence, 31 g ai/ha): 75 | Plant response rating, Galium [11, 18]: 85 | Plant response rating, Galium [11, 19]: 95 | Plant response rating, Galium [11, 20]: 100 | Plant response rating, Galium [11, 21]: 100 | Deadnettle plant response rating [12, 15]: 85 | Plant response rating, Deadnettle [12, 16]: 80 | Plant response rating, Deadnettle [12, 17]: 100 | Plant response rating (scale of 0 to 100), Deadnettle ([12]; Preemergence, 31 g ai/ha): 35 | Plant response rating, Deadnettle [12, 18]: 90 | Plant response rating, Deadnettle [12, 19]: 100 | Plant response rating, Deadnettle [12, 20]: 100 | Plant response rating, Deadnettle [12, 21]: 100 | Pigweed plant response rating [13, 15]: 75 | Plant response rating, Pigweed [13, 16]: 80 | Plant response rating, Pigweed [13, 17]: 85 | Plant response rating (scale of 0 to 100), Pigweed ([13]; Preemergence, 31 g ai/ha): 25 | Plant response rating, Pigweed [13, 18]: 75 | Plant response rating, Pigweed [13, 19]: 100 | Plant response rating, Pigweed [13, 20]: 100 | Plant response rating, Pigweed [13, 21]: 80 | Foxtail, Green plant response rating [14, 15]: 45 | Plant response rating, Foxtail, Green [14, 16]: 50 | Plant response rating, Foxtail, Green [14, 17]: 65 | Plant response rating (scale of 0 to 100), Foxtail, Green ([14]; Preemergence, 31 g ai/ha): 45 | Plant response rating, Foxtail, Green [14, 18]: 80 | Plant response rating, Foxtail, Green [14, 19]: 100 | Plant response rating, Foxtail, Green [14, 20]: 100 | Plant response rating, Foxtail, Green [14, 21]: 55
